# Data from patent US10001483B2, “Methods for the treatment of Kaposi's sarcoma or KSHV-induced lymphoma using immunomodulatory compounds, and uses of biomarkers” (Celgene Corporation, priority 2015, dated 2018).
# Entries after “also recorded” stand apart in the source; their conditions may differ. Marks after values point to notes of the source that are not given here.
# What was measured:
# KSHV K3 and K5 = test: K3 and K5 protein expression in BCBL-1 cells after lytic activation, Western blot; assay type: cell-based; details: following lytic activation
# Experimental: Western Blotting: At the end of an incubation period, cells were lysed and nuclear/cytoplasmic extracts were prepared using the NE-PER nuclear extraction kit (Pierce). Samples were subjected to SDS-PAGE (4 to 12% NuPAGE Tris-Bis) (Invitrogen) and transferred to nitrocellulose. The membrane was blocked with 5% w/v nonfat dry milk in 1×TBST (10 mM Tris-Hcl, […], 150 mM NaCl, and 0.05% Tween 20) overnight at 4° C. Blots were incubated with indicated antibodies such as anti-IRF-7 (Santa Cruz), anti-IRF-4 (Cell Signaling), anti-p21 (Cell Signaling), anti-NF-κB p65 (Cell Signaling), anti-NF-κB phospho-p65 (Cell Signaling), IFN-γRa (Cell Signaling), or anti-CRBN (Sigma-Aldrich), and subjected to the appropriate secondary antibody conjugated to alkaline phosphatase (Promega). Bands were visualized with Western Blue stabilized substrate (Promega). Membranes were scanned and images were processed as described.
# Flow Cytometry Analysis and Antibodies: For flow cytometry analysis of MHC-I expression, cells were plated at 400,000 cells/mL and pretreated with immunomodulatory agents as indicated. After twenty-four hours, cells were treated with butyrate at indicated amounts to induce lytic activation and down-regulation of MHC-I. After another twenty-four hours, cells were analyzed on FACS and extracts were prepared as indicated. […]
# HIV-1 = test: Plasma HIV viral load by ultrasensitive single copy assay; assay type: in vivo
# Experimental: (§1) Aspirin at 81 mg daily was administered as thromboprophylaxis. Assessments were performed every 4 weeks for lymphocyte numbers, Kaposi sarcoma associated herpesvirus (KSHV/HHV8) viral load (VL) and HIV VL and at 8 weeks for T cell subsets and activation by immunophenotyping of peripheral blood mononuclear cells (PBMC). KSHV VL in PBMC and HIV VL in plasma were assayed by quantitative PCR; an ultrasensitive single copy assay was used for HIV VL. Changes from baseline were evaluated using the Wilcoxon signed rank test with P<0.005 considered significant given multiple comparisons. Differences in changes between the HIV infected and uninfected groups were evaluated using the Wilcoxon rank sum test. Median time of the patients on therapy 7 cycles (range 2-12).
# (§2) Laboratory Assays: Lymphocyte subsets were assessed by fluorescent-activated cell sorting using the BlueOcean platform (Beckman Coulter, Carlsbad, Calif.). Plasma HIV-1 […] was evaluated using an ultrasensitive assay whose sensitivity was 1 viral copy per plasma volume. Briefly, a triplex PCR was used using a modification of a previously reported assay with three primers: one spanning the start codon of gag, one in the gag coding region, and one internal control. Samples were tested from 6 mL plasma aliquots, with 12 replicants per sample. KSHV VL in peripheral blood mononuclear cells (PBMC) was assessed by quantitative real-time PCR.
# (§3) Changes in immunologic and virologic parameters were evaluated by a Wilcoxon signed rank test. Exact Wilcoxon rank sum tests were used to compare pharmacokinetic parameters at each time point and differences from baseline. All p-values are two-tailed and reported without adjustment for multiple comparisons. HRQL was analyzed using a using a mixed model repeated measures analysis for FAHI and the marginal homogeneity test for KS-specific questions
# [1] = system: Kaposi sarcoma associated herpesvirus (KSHV/HHV8); test: KSHV viral load in PBMC by quantitative real-time PCR; assay type: in vivo
# Experimental: as §1, §2, §3
# Kaposi sarcoma = test: Clinical study of pomalidomide in Kaposi sarcoma patients with and without HIV: KS responses by modified ACTG criteria; assay type: in vivo, human
# Experimental: Enrollment: 22 patients (15 HIV positive and 7 HIV negative) median age 52 years (range 32-74) were studied. All patients with HIV were receiving antiretroviral therapy (ART) for median 48 months (7-227), HIV VL<50 copies/mL (all), and CD4 count 378 cells/μl (135-752). […] All were evaluable for response.
# as §1
# Kaposi sarcoma responses: KS responses were evaluated every cycle and categorized as complete (CR), partial (PR), stable disease (SD), or progressive disease (PD) using modified ACTG criteria. To be evaluable for response, patients completed at least two cycles of therapy. Evaluations included lesion counts, measurement of the sum product of the diameters of five indicator lesions, assessment of nodularity, and measurement of limb circumference if tumor-associated edema was present. PR was considered as at least 50% decrease in number of lesions and/or sum product of the diameters of marker lesions and/or nodularity of lesions, and no new lesions in previously uninvolved areas nor criteria for PD. CR was considered as clinical resolution of all lesions and tumor-associated phenomenon, with biopsy confirmation. Both CR and PR had to be sustained for 4 weeks. Best response was evaluated for each patient.
# Complete and partial responses are objective tumor responses by modified AIDS Clinical Trial Group Criteria for KS. Complete response also requires pathological confirmation. Individual responses are shown in FIG. 1A (maximal change in number of nodular lesions) and FIG. 1B (maximal change in total number of lesions). No decrease in quality of life during therapy was reported by patient. Improved satisfaction with appearance was reported by patients. […] This includes objective responses in patients previously refractory to standard cytotoxic therapy and in patients who have previously received other immunomodulatory drugs (e.g., thalidomide, lenalidomide, or both).
# HIV infected and uninfected cohorts were evaluated separately and combined. The unacceptable ORR for further development was defined as 10% and a desirable (targeted) ORR as 40%. Up to 10 HIV negative patients were to be enrolled, with the goal of […]; that would have 83.3% probability of occurring if the true ORR were 40% and 7.0% probability of occurring if the true ORR were 10%. Up to 15 HIV positive patients were to be enrolled, with the goal of […]; that would have 90.9% probability of occurring if the true ORR were 40% and 5.6% probability of occurring if the true ORR were 10%.
# [2] = restricted to the 15 HIV positive subjects, paired data for 10-13 patients
# [3] = Combined, 22 assessable, patients (%), 5 mg per day orally 21 of 28 days
# [4] = HIV negative, 7 assessable, patients (%)
# [5] = HIV positive, 15 assessable, patients (%)
smiles,measurement,setting,value
"Nc1cccc2c1C(=O)N(C1CCC(=O)NC1=O)C2=O (stereo not shown) [pomalidomide, 4-amino-2-(2,6-dioxopiperidin-3-yl)isoindoline-1,3-dione]",protein expression level of KSHV K3 or K5,KSHV K3 and K5; FIG. 8,appears not to prevent K3 and K5 expression
same,protein expression level of KSHV K3 or K5,"KSHV K3 and K5; FIG. 8, listed as Pomalidomide",did not significantly change the protein expression level
same,HIV VL,"HIV-1; plasma, ultrasensitive single copy assay",no significant change
same,"Plasma HIV VL (copies/mL) Change to End Therapy (Med, range)",HIV-1; [2],−0.5 copies/mL
same,"Plasma HIV VL (copies/mL) Change to Week 8 (Med, range)",HIV-1; [2],+0.75 copies/mL
same,"Plasma HIV VL (copies/mL) Change to Week 4 (Med, range)","HIV-1; restricted to the 15 HIV positive subjects, paired data for 10-13 patients, baseline 1.5",+0.3 copies/mL
same,"KSHV VL (copies/PBMC) Change to End Therapy (Med, range)",[1]; median change from baseline,0 copies/PBMC
same,"KSHV VL (copies/PBMC) Change to Week 8 (Med, range)",[1]; median change from baseline,0 copies/PBMC
same,"KSHV VL (copies/PBMC) Change to Week 4 (Med, range)",[1]; median change from baseline 0,0^† copies/PBMC
same,subjects whose KSHV VL became detectable from undetectable,"[1]; week 4, 8 subjects",35%
same,subjects showing an increase in KSHV VL in PBMCs,"[1]; week 4, 10 subjects",45%
same,KSHV VL,"[1]; week 4, not sustained at week 8",transient increase; also recorded: significant increase
same,response in HIV-uninfected subjects,Kaposi sarcoma; 5 mg for 21 of 28 days,all HIV-uninfected subjects responded
same,overall response rate,"Kaposi sarcoma; 5 mg for 21 of 28 days, symptomatic KS regardless of HIV status",73%
same,subjects with edema having evidence of improvement in tumor-associated edema,Kaposi sarcoma; 10 of 17 subjects with edema,59%
same,Complete Response (CR),Kaposi sarcoma; [3],4 (18%)
same,Partial Response (PR),Kaposi sarcoma; [3],12 (55%)
same,Progressive Disease (PD),Kaposi sarcoma; [3],3 (14%)
same,Overall Response (CR + PR),"Kaposi sarcoma; Combined, 22 assessable, patients (%), 5 mg per day orally 21 days of 28 day cycles",16 (73%)
same,Time to Response,"Kaposi sarcoma; Combined, range (4-36)",4 weeks
same,Progressive Disease (PD),"Kaposi sarcoma; HIV negative, 7 assessable, patients",0
same,Complete Response (CR),Kaposi sarcoma; [4],1 (14%)
same,Partial Response (PR),Kaposi sarcoma; [4],6 (86%)
same,Overall Response (CR + PR),"Kaposi sarcoma; HIV negative, 7 assessable, patients (%), 5 mg per day orally 21 of 28 days",7 (100%)
same,Time to Response,"Kaposi sarcoma; HIV negative, range (4-36)",4 weeks
same,Complete Response (CR),Kaposi sarcoma; [5],3 (20%)
same,Partial Response (PR),Kaposi sarcoma; [5],6 (40%)
same,Overall Response (CR + PR),"Kaposi sarcoma; HIV positive, 15 assessable, patients (%), 5 mg per day orally 21 of 28 days",9 (60%)
same,Progressive Disease (PD),"Kaposi sarcoma; HIV positive, 15 assessable, patients (%), includes one subject non-adherent to ART and protocol therapy",3 (20%)*
same,Time to Response,"Kaposi sarcoma; HIV positive, range (4-32)",8 weeks
same,"KS responses, character",Kaposi sarcoma; including patients refractory to cytotoxic therapy or previously given other immunomodulatory drugs,"responses were generally rapid, were linked to improved self reported outcomes, and occurred even in advanced and heavily pretreated KS"
same,subjects in whom limb circumference showed at least a 2 cm reduction with therapy,"Kaposi sarcoma; number of subjects, of 17 with edema",8
same,representative response of a left great toe lesion,"Kaposi sarcoma; one patient, after 4 weeks, FIG. 10B",complete flattening of the lesion
same,representative response of a left great toe lesion,"Kaposi sarcoma; same patient, 24 weeks, FIG. 10C",complete resolution of the lesion and a complete pathological response
